In ChEMBL document CHEMBL3297680, “Pharmacophore based virtual screening, molecular docking and biological evaluation to identify novel PDE5 inhibitors with vasodilatory activity” (Bioorg Med Chem Lett, 2014):

Target: cGMP-specific 3',5'-cyclic phosphodiesterase (Homo sapiens, UniProt O76074)
Assay: Inhibition of PDE5 (unknown origin)

Point of comparison: `CCN1C(=O)c2[nH]c(C)nc2N2C1=N[C@@H]1CCC[C@@H]12`, IC50 100 nM. Against it:
- Cc1nc2c([nH]1)C(=O)N(C)C1=N[C@@H]3CCC[C@@H]3N12 — 24-fold higher, 2400 nM
- CCCCCCc1nc2c(n1Cc1ccccc1)C(=O)N(C)C1=N[C@@H]3CCC[C@@H]3N12 — 8-fold higher, 800 nM
- CN1C(=O)c2[nH]c(Cc3ccccc3)nc2N2CC3(CCCC3)N=C12 — 5.3-fold lower, 19 nM
- CN1C(=O)c2[nH]c(CC3CCCCC3)nc2N2C1=N[C@@H]1CCC[C@@H]12 — 5.3-fold lower, 19 nM
- CN1C(=O)c2c(nc(CC3CCCC3)n2Cc2ccccc2)N2CC3(CCCC3)N=C12 — within 1.5-fold, 120 nM
- CN1C(=O)c2c(nc(-c3ccccc3)n2Cc2ccccc2)N2CC3(CCCC3)N=C12 — 9.1-fold lower, 11 nM
- CN1C(=O)c2[nH]c(CN3CCCC3)nc2N2C1=N[C@@H]1CCC[C@@H]12 — 160-fold higher, 16000 nM
- CN1C(=O)c2c(nc(Cc3ccc(-c4ccccc4)cc3)n2Cc2ccccc2)N2C1=N[C@@H]1CCC[C@@H]12 — 3-fold higher, 305 nM
- CN1C(=O)c2[nH]c(Cc3ccc(-c4ccccc4)cc3)nc2N2C1=N[C@@H]1CCC[C@@H]12 — 1.5-fold lower, 66 nM
- CN1C(=O)c2c(nc(Cc3ccccc3)n2Cc2cccnc2)N2C1=N[C@@H]1CCC[C@@H]12 — 43-fold higher, 4300 nM
- CN1C(=O)c2[nH]c(C#Cc3ccccc3)nc2N2C1=N[C@@H]1CCC[C@@H]12 — 60-fold higher, 6000 nM
- CN1C(=O)c2c(nc(Cc3ccccc3)n2Cc2cccc(O)c2O)N2C1=N[C@@H]1CCC[C@@H]12 — 2-fold higher, 200 nM
- CN1C(=O)c2[nH]c(C(F)(F)F)nc2N2C1=N[C@@H]1CCC[C@@H]12 — 62-fold higher, 6200 nM
- CN1C(=O)c2c(nc(Cc3ccccc3)n2C)N2CC3(CCCC3)N=C12 — 45-fold higher, 4500 nM
- CN(C)Cc1nc2c(n1Cc1ccccc1)C(=O)N(C)C1=N[C@@H]3CCC[C@@H]3N12 — 56-fold higher, 5600 nM
- CN1C(=O)c2c(nc(CC3CC3)n2Cc2ccccc2)N2C1=N[C@@H]1CCC[C@@H]12 — 4.2-fold higher, 420 nM
- CN1C(=O)c2[nH]c(Cc3ccc(-c4ccccc4)cc3)nc2N2CC3(CCCC3)N=C12 — 2.3-fold lower, 43 nM
- CCCCCCc1nc2c([nH]1)C(=O)N(C)C1=N[C@@H]3CCC[C@@H]3N12 — 10-fold lower, 10 nM
- CN1C(=O)c2c(nc(CN3CCCC3)n2Cc2ccccc2)N2C1=N[C@@H]1CCC[C@@H]12 — 12-fold higher, 1200 nM
- CN1C(=O)c2[nH]c(CC3CCCC3)nc2N2CC3(CCCC3)N=C12 — 3.8-fold lower, 26 nM
- COCc1nc2c(n1Cc1ccccc1)C(=O)N(C)C1=N[C@@H]3CCC[C@@H]3N12 — 10-fold higher, 1000 nM
- CN1C(=O)c2c(nc(C(F)(F)F)n2Cc2ccccc2)N2C1=N[C@@H]1CCC[C@@H]12 — 4-fold higher, 400 nM
- Cc1nc2c(n1Cc1ccccc1)C(=O)N(C)C1=N[C@@H]3CCC[C@@H]3N12 — 2.2-fold higher, 225 nM
- CN1C(=O)c2c(nc(Cc3ccccc3)n2Cc2ccccc2)N2C1=N[C@@H]1CCC[C@@H]12 — 1.8-fold higher, 180 nM
- CC(C)CCc1nc2c(n1Cc1ccccc1)C(=O)N(C)C1=N[C@@H]3CCC[C@@H]3N12 — 5.6-fold higher, 560 nM
- CN1C(=O)c2[nH]c(CC3CC3)nc2N2C1=N[C@@H]1CCC[C@@H]12 — 6.1-fold higher, 610 nM
- CN1C(=O)c2c(nc(CC3CCCCC3)n2Cc2ccccc2)N2C1=N[C@@H]1CCC[C@@H]12 — 5.9-fold higher, 590 nM
- CN1C(=O)c2c(nc(Cc3ccccc3)n2Cc2ncc[nH]2)N2C1=N[C@@H]1CCC[C@@H]12 — 40-fold higher, 4000 nM
- CN1C(=O)c2c(nc(Cc3ccccc3)n2CC2CCCCC2)N2C1=N[C@@H]1CCC[C@@H]12 — within 1.5-fold, 110 nM
- CN1C(=O)c2c(nc(C#Cc3ccccc3)n2Cc2ccccc2)N2C1=N[C@@H]1CCC[C@@H]12 — 25-fold lower, 4 nM
- CN1C(=O)c2[nH]c(CC3CCCC3)nc2N2C1=N[C@@H]1CCC[C@@H]12 — 2.9-fold lower, 34 nM
- CN1C(=O)c2c(nc(CC3CCCC3)n2Cc2ccccc2)N2C1=N[C@@H]1CCC[C@@H]12 — 2.8-fold higher, 275 nM
- CN1C(=O)c2c(nc(Cc3ncc[nH]3)n2Cc2ccccc2)N2C1=N[C@@H]1CCC[C@@H]12 — 15-fold higher, 1500 nM
- CCCc1nc2c(n1Cc1ccccc1)C(=O)N(C)C1=N[C@@H]3CCC[C@@H]3N12 — 5.1-fold higher, 510 nM
- Cc1nc2c(n1Cc1ccccc1)N1CC3(CCCC3)N=C1N(C)C2=O — 29-fold higher, 2900 nM
- Cc1nc2c([nH]1)C(=O)N(C(C)C)C1=N[C@@H]3CCC[C@@H]3N12 — 2.4-fold higher, 240 nM
- CCCc1nc2c([nH]1)N1C(=N[C@@H]3CCC[C@@H]31)N(C)C2=O — 8-fold higher, 800 nM
- CN1C(=O)c2c(nc(Cc3ccccc3)n2Cc2ccccc2)N2CC3(CCCC3)N=C12 — within 1.5-fold, 120 nM
- COCc1nc2c([nH]1)N1C(=N[C@@H]3CCC[C@@H]31)N(C)C2=O — 130-fold higher, 13000 nM
- CN1C(=O)c2c(nc(Cc3ccc(-c4ccccc4)cc3)n2Cc2ccccc2)N2CC3(CCCC3)N=C12 — 2-fold higher, 200 nM
- CN1C(=O)c2[nH]c(Cc3ncc[nH]3)nc2N2C1=N[C@@H]1CCC[C@@H]12 — 260-fold higher, 26000 nM
- CN1C(=O)c2c(nc(Cc3ccccc3)n2CCO)N2C1=N[C@@H]1CCC[C@@H]12 — 100-fold higher, 10000 nM
- CN1C(=O)c2[nH]c(-c3ccccc3)nc2N2CC3(CCCC3)N=C12 — 33-fold higher, 3300 nM
- CC(C)CCc1nc2c([nH]1)C(=O)N(C)C1=N[C@@H]3CCC[C@@H]3N12 — 2-fold lower, 50 nM

Test system: Aorta
Assay: Vasodilatory activity in phenylephrine-induced pre-contracted Wistar rat aortic ring assessed as relaxation at 10 '-6 M
Assay type: functional
Set-up: scale not given: the % may be the effect or the level left

`CCCCC(=O)c1cc(OC)cc(OC)c1` was tested, and the Activity was 50%.

Test system: Aorta
Assay: Vasodilatory activity in phenylephrine-induced pre-contracted Wistar rat aortic ring assessed as relaxation at 10 '-5 M
Assay type: functional
Set-up: scale not given: the % may be the effect or the level left

Point of comparison: `CCCc1nn(C)c2c(=O)[nH]c(-c3cc(S(=O)(=O)N4CCN(C)CC4)ccc3OCC)nc12`, Activity 50%. Against it:
- CCOC(=O)c1cnc2nc(N)ccc2c1O — the same, 50%
- CCCCC(=O)c1cc(OC)cc(OC)c1 — the same, 50%

Test system: Aorta
Assay: Vasodilatory activity in phenylephrine-induced pre-contracted Wistar rat aortic ring assessed as relaxation at 10 '-4 M
Assay type: functional
Set-up: scale not given: the % may be the effect or the level left

Point of comparison: `CC(CC/N=C/c1ccccc1O)/N=C/c1ccccc1O` (centres undefined), Activity 50%. Against it:
- CCCCC(=O)c1cc(OC)cc(OC)c1 — the same, 50%

Test system: Aorta
Assay: Vasodilatory activity in phenylephrine-induced pre-contracted Wistar rat aortic ring assessed as relaxation at 10 '-2 M
Assay type: functional
Set-up: scale not given: the % may be the effect or the level left

Point of comparison: `CCCCC(=O)c1cc(OC)cc(OC)c1`, Activity 50%. Against it:
- CCCc1nn(C)c2c(=O)[nH]c(-c3cc(S(=O)(=O)N4CCN(C)CC4)ccc3OCC)nc12 — the same, 50%
- CCOC(=O)c1cnc2nc(N)ccc2c1O — the same, 50%
